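Exposure lasted 48 hours, with cells grown in 96-well plates and compounds tested at five concentrations. The concentration for full growth arrest is given as TGI.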
Columns and labels:
Experiment in all cases: NCI tumour cell line growth inhibition, 48 h
[1] = tested on: M14 melanoma
[2] = tested on: HCT-116 colon
[3] = tested on: K-562 leukemia
[4] = tested on: SK-MEL-28 melanoma
[5] = tested on: MALME-3M melanoma
[6] = tested on: HOP-92 NSCLC
[7] = tested on: HCT-15 colon
[8] = tested on: UACC-257 melanoma
[9] = tested on: MDA-MB-435
[10] = tested on: SNB-19 CNS
[11] = tested on: COLO 205 colon
[12] = tested on: SW-620 colon
[13] = tested on: SN12C renal
[14] = tested on: A549 NSCLC
[15] = tested on: SR leukemia
[16] = tested on: SF-295 CNS
[17] = tested on: MDA-MB-231 breast
[18] = tested on: UO-31 renal
[19] = tested on: NCI-H226 lung
[20] = tested on: NCI/ADR-RES ovarian
[21] = tested on: 786-0 renal
[22] = tested on: HT29 colon
[23] = tested on: MOLT-4 leukemia
[24] = tested on: IGROV1 ovarian
[25] = tested on: EKVX NSCLC
[26] = tested on: NCI-H522 lung
[27] = tested on: KM12 colon
[28] = tested on: CAKI-1 renal
[29] = tested on: SNB-75 CNS
[30] = tested on: OVCAR-3 ovarian
[31] = tested on: TK-10 renal
[32] = tested on: UACC-62 melanoma
[33] = tested on: PC-3 prostate
[34] = tested on: ACHN renal
[35] = tested on: SK-MEL-5 melanoma
[36] = tested on: OVCAR-5 ovarian
[37] = tested on: MDA-N
[38] = tested on: MCF7 breast
[39] = tested on: SK-MEL-2 melanoma
[40] = tested on: DU-145 prostate
[41] = tested on: HS 578T breast
[42] = tested on: T-47D breast
[43] = tested on: RXF 393 renal
[44] = tested on: U251 CNS
[45] = tested on: NCI-H23 lung
[46] = tested on: SF-268 CNS
[47] = tested on: A498 renal
[48] = tested on: RPMI-8226 leukemia
[49] = tested on: HOP-62 NSCLC
[50] = tested on: OVCAR-4 ovarian
[51] = tested on: OVCAR-8 ovarian
[52] = tested on: SK-OV-3 ovarian
[53] = tested on: LOX IMVI melanoma
[54] = tested on: SF-539 CNS
[55] = tested on: NCI-H460 lung
[56] = tested on: HCC-2998 colon
[57] = tested on: HL-60(TB) leukemia
[58] = tested on: CCRF-CEM leukemia

Compound: CCOCCOC(=O)C1CCC(=O)N1CN(C(C)=O)c1cc(OC)ccc1OC (stereo not given)
- TGI [1]: > 100 µM
- TGI [2]: > 100 µM
- TGI [3]: > 100 µM
- TGI [4]: > 100 µM
- TGI [5]: > 100 µM
- TGI [6]: > 100 µM
- TGI [7]: > 100 µM
- TGI [8]: > 100 µM
- TGI [9]: > 100 µM
- TGI [10]: > 100 µM
- TGI [11]: > 100 µM
- TGI [12]: > 100 µM
- TGI [13]: > 100 µM
- TGI [14]: > 100 µM
- TGI [15]: > 100 µM
- TGI [16]: > 100 µM
- TGI [17]: > 100 µM
- TGI [18]: > 100 µM
- TGI [19]: > 100 µM
- TGI [20]: > 100 µM
- TGI [21]: > 100 µM
- TGI [22]: > 100 µM
- TGI [23]: > 100 µM
- TGI [24]: > 100 µM
- TGI [25]: > 100 µM
- TGI [26]: > 100 µM
- TGI [27]: > 100 µM
- TGI [28]: > 100 µM
- TGI [29]: > 100 µM
- TGI [30]: > 100 µM
- TGI [31]: > 100 µM
- TGI [32]: > 100 µM
- TGI [33]: > 100 µM
- TGI [34]: > 100 µM
- TGI [35]: > 100 µM
- TGI [36]: > 100 µM
- TGI [37]: > 100 µM
- TGI [38]: > 100 µM
- TGI [39]: > 100 µM
- TGI [40]: > 100 µM
- TGI [41]: > 100 µM
- TGI [42]: > 100 µM
- TGI [43]: > 100 µM
- TGI [44]: > 100 µM
- TGI [45]: > 100 µM
- TGI [46]: > 100 µM
- TGI [47]: > 100 µM
- TGI [48]: > 100 µM
- TGI [49]: > 100 µM
- TGI [50]: > 100 µM
- TGI [51]: > 100 µM
- TGI [52]: > 100 µM
- TGI [53]: > 100 µM
- TGI [54]: > 100 µM
- TGI [55]: > 100 µM

Compound: OC1c2ccccc2CCC1C(O)(C(F)(F)F)C(F)(F)F (stereo not given)
- TGI [1]: > 100 µM
- TGI [2]: > 100 µM
- TGI [3]: > 100 µM
- TGI [4]: > 100 µM
- TGI [5]: > 100 µM
- TGI [6]: > 100 µM
- TGI [7]: > 100 µM
- TGI [9]: > 100 µM
- TGI [10]: > 100 µM
- TGI [11]: > 100 µM
- TGI [12]: > 100 µM
- TGI [13]: > 100 µM
- TGI [56]: > 100 µM
- TGI [14]: > 100 µM
- TGI [15]: > 100 µM
- TGI [16]: > 100 µM
- TGI [17]: > 100 µM
- TGI [57]: > 100 µM
- TGI [18]: > 100 µM
- TGI [19]: > 100 µM
- TGI [20]: > 100 µM
- TGI [21]: > 100 µM
- TGI [22]: > 100 µM
- TGI [23]: > 100 µM
- TGI [24]: > 100 µM
- TGI [25]: > 100 µM
- TGI [58]: > 100 µM
- TGI [26]: > 100 µM
- TGI [27]: > 100 µM
- TGI [28]: > 100 µM
- TGI [29]: > 100 µM
- TGI [30]: > 100 µM
- TGI [31]: > 100 µM
- TGI [32]: > 100 µM
- TGI [33]: > 100 µM
- TGI [34]: > 100 µM
- TGI [35]: > 100 µM
- TGI [36]: > 100 µM
- TGI [37]: > 100 µM
- TGI [38]: > 100 µM
- TGI [39]: > 100 µM
- TGI [40]: > 100 µM
- TGI [41]: > 100 µM
- TGI [42]: > 100 µM
- TGI [43]: > 100 µM
- TGI [44]: > 100 µM
- TGI [45]: > 100 µM
- TGI [46]: > 100 µM
- TGI [47]: > 100 µM
- TGI [48]: > 100 µM
- TGI [49]: > 100 µM
- TGI [50]: > 100 µM
- TGI [51]: > 100 µM
- TGI [52]: > 100 µM
- TGI [53]: > 100 µM
- TGI [54]: > 100 µM
- TGI [55]: > 100 µM

Compound: CCOC(=O)C(/C=N\C(=S)Nc1c(CC)cccc1C(C)(C)C)=C(/O)c1ccccc1
- TGI [1]: > 100 µM
- TGI [2]: > 100 µM
- TGI [3]: > 100 µM
- TGI [4]: > 100 µM
- TGI [5]: > 100 µM
- TGI [7]: > 100 µM
- TGI [8]: > 100 µM
- TGI [9]: > 100 µM
- TGI [11]: > 100 µM
- TGI [12]: > 100 µM
- TGI [13]: > 100 µM
- TGI [56]: > 100 µM
- TGI [14]: > 100 µM
- TGI [15]: > 100 µM
- TGI [16]: > 100 µM
- TGI [17]: > 100 µM
- TGI [57]: > 100 µM
- TGI [18]: > 100 µM
- TGI [19]: > 100 µM
- TGI [20]: > 100 µM
- TGI [21]: > 100 µM
- TGI [22]: > 100 µM
- TGI [23]: > 100 µM
- TGI [24]: > 100 µM
- TGI [25]: > 100 µM
- TGI [58]: > 100 µM
- TGI [26]: > 100 µM
- TGI [27]: > 100 µM
- TGI [28]: > 100 µM
- TGI [29]: > 100 µM
- TGI [32]: > 100 µM
- TGI [33]: > 100 µM
- TGI [34]: > 100 µM
- TGI [35]: > 100 µM
- TGI [36]: > 100 µM
- TGI [37]: > 100 µM
- TGI [38]: > 100 µM
- TGI [39]: > 100 µM
- TGI [40]: > 100 µM
- TGI [41]: 87.5 µM
- TGI [42]: > 100 µM
- TGI [43]: > 100 µM
- TGI [44]: > 100 µM
- TGI [45]: > 100 µM
- TGI [46]: > 100 µM
- TGI [47]: > 100 µM
- TGI [48]: > 100 µM
- TGI [49]: > 100 µM
- TGI [50]: > 100 µM
- TGI [51]: > 100 µM
- TGI [52]: > 100 µM
- TGI [53]: > 100 µM
- TGI [54]: > 100 µM

From PubChem BioAssay (NCI)
